# Patent publication US4451461A, “10-(1-Aza-[2,2,2)-bicyclo-3-octyl]-10H-2-phenothiazinesulfonamide and derivatives thereof” (Pharmindustrie, priority 1981, dated 1984)
# System: gastric hypersecretion stimulated by pentagastrine (Heidenhein pouch dogs)
# Test: Anti-secretory activity against pentagastrine-stimulated gastric hypersecretion in dogs fitted with the Heidenhein pouch
# Type: in vivo, dog (mongrels)
# Settings: for ED50 (dose which reduces the hourly acid output by 50% during the 3rd or 4th hour in relation to the second hour of perfusion): p.o., gelatine capsule, 1.5 h after start of pentagastrine perfusion, dogs, doses expressed as base
# Method: The anti-secretory activity of the compounds of formula (I) according to the invention has been investigated in cases of gastric hypersecretion which has been stimulated by pentagastrine in dogs fitted with the Heidenhein pouch.
# Three mongrels, fitted with the Heidenhein pouch and not having eaten for 18 hours, were given a veinous perfusion of […] pentagastrine, at a volume of 30 ml/hour for 4 hours. The secretion in the pouch was collected in a bottle which was changed every 15 minutes. 1.5 hours after commencement of the perfusion, the product to be investigated was administered orally in an h°000 gelatine-coated capsule. The effective dose 50% (ED50) is the dose which reduces the hourly acid output by 50% during the 3rd or 4th hour of the experiment in relation to the acid output of the second hour of perfusion. The doses are expressed as a product in basic form.
Compound,"activity compared with cimetidine (in words) (Heidenhein pouch dogs, oral, vs cimetidine)",ED50 (dose which reduces the hourly acid output by 50% during the 3rd or 4th hour in relation to the second hour of perfusion)
"CNS(=O)(=O)c1ccc2c(c1)N(C1CN3CCC1CC3)c1ccccc1S2 (stereo not shown) [Example 2, N-METHYL-10-[1-AZA-(2,2,2)-BICYCLO-3-OCTYL]-10H-2-PHENOTHIAZINESULFONAMIDE]",more active than cimetidine,0.7 mg/kg
CN/C(=N/CCSCc1nc[nH]c1C)NC#N [Cimetidine],–,2.3 mg/kg
"CN(C)S(=O)(=O)c1ccc2c(c1)N(C1CN3CCC1CC3)c1ccccc1S2 (stereo not shown) [N,N-dimethyl-10-[1-aza-(2,2,2)-bicyclo-3-octyl]-10H-2-phenothiazinesulfonamide]",–,1.25 mg/kg
